Measured values: patent publication US11850273B2, “Chemical reprogramming of human glial cells into neurons for brain and spinal cord repair” (The Penn State Research Foundation, priority 2014, dated 2023)

System: human astrocyte-converted neurons
Assay: Patch clamp whole-cell recordings of human astrocyte-converted neurons

## DNQX
  effect on spontaneous burst activities: abolished
